The test system of the first assay is brains, heart, liver, muscle, and DRG of the NHPs. The experiment in a line: Maturation of TTM-001 and TTM-002 capsids, NGS enrichment in NHP tissues. Type of assay: in vivo. To be noted: NHP DRG; NGS; relative to AAV9 control. From the text:
This Example describes maturation of the AAV9 capsid variants, TTM-001 (SEQ ID NO: 981 (amino acid) and 983 (DNA), comprising SEQ ID NO: 941 (encoded by SEQ ID NO: 942)) and TTM-002 (SEQ ID NO: 982 (amino acid) and 984 (DNA), comprising SEQ ID NO: […] (encoded by SEQ ID NO: 944)) in NHPs to further enhance their transduction and biodistribution in the central nervous system as well as other tissues, and evolve the AAV capsid variants to provide further cross-species compatibility. Two approaches were used to mature the TTM-001 and TTM-002 capsid sequences in order to randomize and mutate within and around the peptide insert comprised within loop IV of the capsid variant. […] In the first maturation approach, sets of three contiguous amino acids were randomized across the mutagenesis region in the TTM-001 and TTM-002 sequences, which spanned from position 450 to position 466, numbered according to SEQ ID NO: 981 and 982. In the second maturation approach, mutagenic primers were used to introduce point mutations at a low frequency, scattered across the mutagenesis region in the TTM-001 and TTM-002 sequences ranging from position 449 to position 466, numbered according to SEQ ID NO: 981 and 982. AAV capsid variants arising from each maturation approach for TTM-001 and TTM-002 were pooled together, for subsequent testing and characterization in NHPs.
The library of pooled matured AAV capsid variants generated using the first maturation approach and the second maturation approach for the TTM-001 and TTM-002 AAV capsid variants were injected into two NHPs. […] Following RNA recovery and RT-PCR amplification, a systematic NGS enrichment analysis was performed to calculate the fold enrichment ratio relative to an AAV9 control, and the peptides comprised within the variants were identified.
Following the RNA recovery and NGS analysis from the second maturation approach, approximately 680,000 capsid variants were identified. The 680,000 matured capsid variants were then filtered based on samples with a raw virus count greater than 10 and a coefficient of variance (CV) of less than 1, which was calculated for each peptide across the brain samples taken from the two NHPs. […] Using this filtering criteria, this led to approximately 64,000 matured capsid variants.
As for KTINGSGSPHMAFQNQQT, the “Fold Enrichment relative to AAV9, DRG (NHP)” value is listed as 0.000 fold.

For KTINGSGSPHSCHQNQQT, the “Fold Enrichment relative to AAV9, DRG (NHP)” value worked out at 0.000 fold.

Regarding KTINGSISPHCPAQNQQT, the “Fold Enrichment relative to AAV9, DRG (NHP)” value is reported as 0.000 fold.

As for KTINGSGSPHSCPQNQQT, the “Fold Enrichment relative to AAV9, DRG (NHP)” value was 0.000 fold.

With KTINGSGSPHFYRQNQQT, the “Fold Enrichment relative to AAV9, DRG (NHP)” value is 0.000 fold.

Regarding KTINGSGSPHSFQINQQT, the “Fold Enrichment relative to AAV9, DRG (NHP)” value came out at 0.000 fold.

For the sequence KTRRPSGSPHSKAQNQQT, the “Fold Enrichment relative to AAV9, DRG (NHP)” value stood at 0.000 fold.

KTINGSGSPHCALQNQQT: the “Fold Enrichment relative to AAV9, DRG (NHP)” value was found to be 0.000 fold.

Regarding KTISGHDSPHISGQYQQT, the “Fold Enrichment relative to AAV9, DRG (NHP)” value is reported as 0.000 fold.

With KTINGSGSPHSKACRLQT, the “Fold Enrichment relative to AAV9, DRG (NHP)” value amounted to 0.000 fold.

The same assay, now with this note: NHP brain; NGS; relative to AAV9 control.
For the sequence KTINGSGSPHMAFQNQQT, the “Fold Enrichment relative to AAV9, Brain (NHP)” value was 0.000 fold.

With KTINGSGSPHSCHQNQQT, the “Fold Enrichment relative to AAV9, Brain (NHP)” value is reported as 0.000 fold.

Turning to KTINGSISPHCPAQNQQT, the “Fold Enrichment relative to AAV9, Brain (NHP)” value stood at 0.000 fold.

As to KTINGSGSPHSCPQNQQT, the “Fold Enrichment relative to AAV9, Brain (NHP)” value worked out at 0.000 fold.

For the sequence KTINGSGSPHFYRQNQQT, the “Fold Enrichment relative to AAV9, Brain (NHP)” value turned out to be 0.000 fold.

For the sequence KTINGSGSPHSFQINQQT, the “Fold Enrichment relative to AAV9, Brain (NHP)” value came out at 0.308 fold.

On to KTRRPSGSPHSKAQNQQT, for which the “Fold Enrichment relative to AAV9, Brain (NHP)” value is listed as 0.000 fold.

KTINGSGSPHCALQNQQT: the “Fold Enrichment relative to AAV9, Brain (NHP)” value worked out at 0.000 fold.

In the case of KTISGHDSPHISGQYQQT, the “Fold Enrichment relative to AAV9, Brain (NHP)” value turned out to be 0.000 fold.

As for KTINGSGSPHSKACRLQT, the “Fold Enrichment relative to AAV9, Brain (NHP)” value worked out at 0.000 fold.

The assay is the same for the next values; noted with them: NHP heart; NGS; relative to AAV9 control.
As for KTINGSGSPHMAFQNQQT, the “Fold Enrichment relative to AAV9, Heart (NHP)” value was found to be 0.000 fold.

As to KTINGSGSPHSCHQNQQT, the “Fold Enrichment relative to AAV9, Heart (NHP)” value was determined as 0.000 fold.

For KTINGSISPHCPAQNQQT, the “Fold Enrichment relative to AAV9, Heart (NHP)” value was 0.000 fold.

KTINGSGSPHSCPQNQQT: the “Fold Enrichment relative to AAV9, Heart (NHP)” value worked out at 0.000 fold.

KTINGSGSPHFYRQNQQT: the “Fold Enrichment relative to AAV9, Heart (NHP)” value amounted to 0.000 fold.

On to KTINGSGSPHSFQINQQT, for which the “Fold Enrichment relative to AAV9, Heart (NHP)” value came to 1.568 fold.

For the sequence KTRRPSGSPHSKAQNQQT, the “Fold Enrichment relative to AAV9, Heart (NHP)” value was found to be 0.000 fold.

KTINGSGSPHCALQNQQT: the “Fold Enrichment relative to AAV9, Heart (NHP)” value is reported as 0.000 fold.

As to KTISGHDSPHISGQYQQT, the “Fold Enrichment relative to AAV9, Heart (NHP)” value amounted to 0.074 fold.

As for KTINGSGSPHSKACRLQT, the “Fold Enrichment relative to AAV9, Heart (NHP)” value was 0.000 fold.

The assay is the same for the next values; noted with them: NHP liver DNA; NGS; relative to AAV9 control.
KTINGSGSPHMAFQNQQT: the “Fold Enrichment relative to AAV9, Liver DNA (NHP)” value stood at 0.542 fold.

Consider KTINGSGSPHSCHQNQQT, for which the “Fold Enrichment relative to AAV9, Liver DNA (NHP)” value was determined as 8.562 fold.

For the sequence KTINGSISPHCPAQNQQT, the “Fold Enrichment relative to AAV9, Liver DNA (NHP)” value is 0.556 fold.

Take KTINGSGSPHSCPQNQQT: the “Fold Enrichment relative to AAV9, Liver DNA (NHP)” value is 1.776 fold.

With KTINGSGSPHFYRQNQQT, the “Fold Enrichment relative to AAV9, Liver DNA (NHP)” value worked out at 9.342 fold.

As for KTINGSGSPHSFQINQQT, the “Fold Enrichment relative to AAV9, Liver DNA (NHP)” value is reported as 0.269 fold.

As to KTRRPSGSPHSKAQNQQT, the “Fold Enrichment relative to AAV9, Liver DNA (NHP)” value was found to be 2.384 fold.

Consider KTINGSGSPHCALQNQQT, for which the “Fold Enrichment relative to AAV9, Liver DNA (NHP)” value is 3.867 fold.

In the case of KTISGHDSPHISGQYQQT, the “Fold Enrichment relative to AAV9, Liver DNA (NHP)” value came out at 0.420 fold.

For KTINGSGSPHSKACRLQT, the “Fold Enrichment relative to AAV9, Liver DNA (NHP)” value was 6.537 fold.

The assay is the same for the next values; noted with them: NHP liver RNA; NGS; TTM-001 and TTM-002 matured AAV capsid variants; relative to AAV9 control.
On to KTINGSGSPHMAFQNQQT, for which the “Fold Enrichment relative to AAV9, Liver RNA (NHP)” value is listed as 17.644 fold.

Regarding KTINGSGSPHSCHQNQQT, the “Fold Enrichment relative to AAV9, Liver RNA (NHP)” value turned out to be 56.242 fold.

Turning to KTINGSISPHCPAQNQQT, the “Fold Enrichment relative to AAV9, Liver RNA (NHP)” value was 24.932 fold.

On to KTINGSGSPHSCPQNQQT, for which the “Fold Enrichment relative to AAV9, Liver RNA (NHP)” value was determined as 16.701 fold.

As for KTINGSGSPHFYRQNQQT, the “Fold Enrichment relative to AAV9, Liver RNA (NHP)” value was 31.724 fold.

As for KTINGSGSPHSFQINQQT, the “Fold Enrichment relative to AAV9, Liver RNA (NHP)” value is reported as 17.418 fold.

For KTRRPSGSPHSKAQNQQT, the “Fold Enrichment relative to AAV9, Liver RNA (NHP)” value turned out to be 42.374 fold.

In the case of KTINGSGSPHCALQNQQT, the “Fold Enrichment relative to AAV9, Liver RNA (NHP)” value was determined as 11.404 fold.

Turning to KTISGHDSPHISGQYQQT, the “Fold Enrichment relative to AAV9, Liver RNA (NHP)” value stood at 12.395 fold.

For the sequence KTINGSGSPHSKACRLQT, the “Fold Enrichment relative to AAV9, Liver RNA (NHP)” value turned out to be 12.297 fold.

The same assay, now with this note: NHP muscle; NGS; relative to AAV9 control.
Turning to KTINGSGSPHMAFQNQQT, the “Fold Enrichment relative to AAV9, Muscle (NHP)” value is 0.000 fold.

Consider KTINGSGSPHSCHQNQQT, for which the “Fold Enrichment relative to AAV9, Muscle (NHP)” value is recorded as 0.000 fold.

For KTINGSISPHCPAQNQQT, the “Fold Enrichment relative to AAV9, Muscle (NHP)” value turned out to be 0.000 fold.

For the sequence KTINGSGSPHSCPQNQQT, the “Fold Enrichment relative to AAV9, Muscle (NHP)” value is on record as 0.000 fold.

On to KTINGSGSPHFYRQNQQT, for which the “Fold Enrichment relative to AAV9, Muscle (NHP)” value was determined as 0.000 fold.

Turning to KTINGSGSPHSFQINQQT, the “Fold Enrichment relative to AAV9, Muscle (NHP)” value is recorded as 0.000 fold.

Consider KTRRPSGSPHSKAQNQQT, for which the “Fold Enrichment relative to AAV9, Muscle (NHP)” value was determined as 0.000 fold.

As for KTINGSGSPHCALQNQQT, the “Fold Enrichment relative to AAV9, Muscle (NHP)” value was 0.000 fold.

Consider KTISGHDSPHISGQYQQT, for which the “Fold Enrichment relative to AAV9, Muscle (NHP)” value came to 1214.588 fold.

For the sequence KTINGSGSPHSKACRLQT, the “Fold Enrichment relative to AAV9, Muscle (NHP)” value is recorded as 0.000 fold.
